pEC50, pIC50: −log10 of the molar value. Active and inactive are the calls of the source. The rule behind the calls is not given here.
Key:
[1] = (§1) Inhibition of human recombinant GAC K320A mutant (73 to 598 residues ) expressed in Escherichia coli BL21 (DE3) cells incubated for 10 mins by fluorometric assay
A549 [2] = experiment: Antiproliferative activity against human A549 cells assessed as reduction in cell viability incubated for 72 hrs by Celltiter-glo assay; type: functional, cell-based; conditions: A549, 72 h
A549 [3] = experiment: Antitumor activity against human A549 cells xenografted in Balb/c nude mouse assessed as tumor growth inhibition at 100 mg/kg, po administered once daily 24 days relative to control; type: functional; conditions: A549, 576 h, time 24 day, read-out: TGI
[4] = biological target: T1, Glutaminase kidney isoform, mitochondrial (Homo sapiens) (UniProt O94925); experiment: Inhibition of GAC (unknown origin)
T1 sequence (whole entry): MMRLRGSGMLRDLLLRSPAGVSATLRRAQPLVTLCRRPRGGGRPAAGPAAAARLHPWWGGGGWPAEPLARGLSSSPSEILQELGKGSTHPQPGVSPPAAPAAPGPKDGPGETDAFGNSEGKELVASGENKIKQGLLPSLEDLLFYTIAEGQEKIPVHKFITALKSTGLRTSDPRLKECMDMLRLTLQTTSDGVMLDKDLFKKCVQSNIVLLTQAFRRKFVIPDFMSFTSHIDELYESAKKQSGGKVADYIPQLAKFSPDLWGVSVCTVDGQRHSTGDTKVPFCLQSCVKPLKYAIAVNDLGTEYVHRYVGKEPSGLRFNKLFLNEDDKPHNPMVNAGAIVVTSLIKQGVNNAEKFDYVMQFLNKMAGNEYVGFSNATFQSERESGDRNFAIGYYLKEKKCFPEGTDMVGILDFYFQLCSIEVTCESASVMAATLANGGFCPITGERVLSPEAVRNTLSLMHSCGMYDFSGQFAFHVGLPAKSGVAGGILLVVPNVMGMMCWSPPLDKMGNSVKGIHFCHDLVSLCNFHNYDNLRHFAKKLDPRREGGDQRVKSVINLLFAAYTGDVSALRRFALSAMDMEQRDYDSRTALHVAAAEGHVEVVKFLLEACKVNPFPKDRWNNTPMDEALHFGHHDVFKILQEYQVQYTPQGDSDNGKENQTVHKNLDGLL

Homo sapiens = species: Homo sapiens; experiment: as §1
A549 [5] = experiment: Inhibition of colony formation in human A549 cells assessed as reduction of colony number measured after 4 days by crystal violet staining-based colony formation assay; type: functional, cell-based; conditions: dose 10-1000 nM, time 4.0 day
[6] = biological target: T1, Glutaminase kidney isoform, mitochondrial (Homo sapiens); experiment: Inhibition of human GAC in A549 cells assessed as reduction in glutamate level at 100 to 1000 nM incubated for 16 hrs by colorimetric assay; type: cell-based; conditions: dose 100-1000 nM
[7] = biological target: T1, Glutaminase kidney isoform, mitochondrial (Homo sapiens); experiment: Inhibition of human GAC in A549 cells assessed as induction of ROS level incubated for 16 hrs by DCFH-DA staining based flow cytometric analysis; type: cell-based; conditions: dose 100-1000 nM

SMILES	pEC50 [1]	pIC50 (A549 [2])	also measured
CNC(=O)c1cccc(CC(=O)Nc2nnc(N[C@@H]3CCN(c4cccnn4)C3)s2)c1	8.34	6.97	
O=C(Cc1cccc(C(=O)OCC2CCC2)c1)Nc1nnc(N[C@@H]2CCN(c3cccnn3)C2)s1	8.00	7.86	
O=C(CCc1ccccc1)Nc1nnc(N[C@@H]2CCN(c3cccnn3)C2)s1	7.17	6.13	
O=C(Cc1cccc(P(=O)(O)O)c1)Nc1nnc(N[C@@H]2CCN(c3cccnn3)C2)s1	8.01	< 5.00	
O=C(Cc1ccc2ccccc2c1)Nc1nnc(N[C@@H]2CCN(c3cccnn3)C2)s1	7.58	6.43	
O=C(Cc1ccco1)Nc1nnc(N[C@@H]2CCN(c3cccnn3)C2)s1	8.13	6.51	
O=C(Cc1cccc(OC(F)(F)F)c1)Nc1ccc(CCCCc2nnc(NC(=O)Cc3ccccn3)s2)nn1 [TELAGLENASTAT]	7.78	7.73	inhibition in vivo at 100 mg/kg (A549 [3]): 34.5%
CC(C)OC(=O)c1cccc(CC(=O)Nc2nnc(N[C@@H]3CCN(c4cccnn4)C3)s2)c1	8.40	8.03	inhibition (A549 [5]): Dose-Dependent Effect; inhibition [6]: Active; inhibition [7]: Dose-Dependent Effect
O=C(Cc1cccc(-c2nnn[nH]2)c1)Nc1nnc(N[C@@H]2CCN(c3cccnn3)C2)s1	8.44	< 5.00	
O=C(Nc1nnc(N[C@@H]2CCN(c3cccnn3)C2)s1)C1(c2ccccc2)CC1	< 6.00	6.02	
O=C(Cc1ccc(CO)cc1)Nc1nnc(N[C@@H]2CCN(c3cccnn3)C2)s1	7.90	5.77	
O=C(Cc1ccc(C(=O)O)cc1)Nc1nnc(N[C@@H]2CCN(c3cccnn3)C2)s1	7.85	5.33	
Cc1ccccc1Oc1cccc(CC(=O)Nc2nnc(N[C@@H]3CCN(c4cccnn4)C3)s2)c1	7.43	7.43	
O=C(Cc1cccc(B(O)O)c1)Nc1nnc(N[C@@H]2CCN(c3cccnn3)C2)s1	8.25	5.93	
CC(=O)OCOC(=O)c1cccc(CC(=O)Nc2nnc(N[C@@H]3CCN(c4cccnn4)C3)s2)c1	8.45	5.96	
O=C(Cc1cccc(C(=O)NC2CCC(F)(F)CC2)c1)Nc1nnc(N[C@@H]2CCN(c3cccnn3)C2)s1	8.37	5.97	
O=C(Cc1cccnc1)Nc1nnc(N[C@@H]2CCN(c3cccnn3)C2)s1	8.05	6.30	
CN(C)C(=O)c1cccc(CC(=O)Nc2nnc(N[C@@H]3CCN(c4cccnn4)C3)s2)c1	8.27	5.74	
CCOC(=O)OCOC(=O)c1cccc(CC(=O)Nc2nnc(N[C@@H]3CCN(c4cccnn4)C3)s2)c1	8.43	6.00	
O=C(Cc1cccc(Cc2ccccc2)c1)Nc1nnc(N[C@@H]2CCN(c3cccnn3)C2)s1	8.03	7.88	
O=C(Cc1cccs1)Nc1nnc(N[C@@H]2CCN(c3cccnn3)C2)s1	8.29	6.65	
O=C(Cc1cccc(C(F)(F)F)c1)Nc1nnc(N[C@@H]2CCN(c3cccnn3)C2)s1	8.19	7.22	
O=C(Cc1cccc(C(=O)OCC2CC2)c1)Nc1nnc(N[C@@H]2CCN(c3cccnn3)C2)s1	7.89	7.29	
O=C(Cc1cccc(OC(F)(F)F)c1)Nc1nnc(N[C@@H]2CCN(c3cccnn3)C2)s1	7.03	8.90	
COC(=O)c1ccc(CC(=O)Nc2nnc(N[C@@H]3CCN(c4cccnn4)C3)s2)cc1	8.37	7.32	
Cc1oc(=O)oc1COC(=O)c1cccc(CC(=O)Nc2nnc(N[C@@H]3CCN(c4cccnn4)C3)s2)c1	8.42	5.26	
CC1(C)OB(c2cccc(CC(=O)Nc3nnc(N[C@@H]4CCN(c5cccnn5)C4)s3)c2)OC1(C)C	8.09	5.90	
O=C(Cc1cccc(C(=O)NC2CC(F)(F)C2)c1)Nc1nnc(N[C@@H]2CCN(c3cccnn3)C2)s1	8.10	5.97	

Molecules with a higher pEC50 [1], results first:

pEC50 [1]	pIC50 (A549 [2])	SMILES	also measured
8.47	6.99	O=C(Cc1ccccc1)Nc1nnc(N[C@@H]2CCN(c3cccnn3)C2)s1	
8.48	7.22	COc1cccc(CC(=O)Nc2nnc(N[C@@H]3CCN(c4cccnn4)C3)s2)c1	
8.49	7.90	CO[C@H](C(=O)Nc1nnc(N[C@@H]2CCN(c3cccnn3)C2)s1)c1ccccc1	
8.50	< 5.00	CN(C)C(=O)COC(=O)c1cccc(CC(=O)Nc2nnc(N[C@@H]3CCN(c4cccnn4)C3)s2)c1	
8.50	5.93	O=C(Cc1cccc(C(=O)NCCF)c1)Nc1nnc(N[C@@H]2CCN(c3cccnn3)C2)s1	
8.57	6.99	CCOC(=O)c1cccc(CC(=O)Nc2nnc(N[C@@H]3CCN(c4cccnn4)C3)s2)c1	
8.58	< 5.00	CS(=O)(=O)NC(=O)c1cccc(CC(=O)Nc2nnc(N[C@@H]3CCN(c4cccnn4)C3)s2)c1	
8.62	6.52	O=C(Cc1cccc(F)c1)Nc1nnc(N[C@@H]2CCN(c3cccnn3)C2)s1	
8.67	6.43	NC(=O)c1cccc(CC(=O)Nc2nnc(N[C@@H]3CCN(c4cccnn4)C3)s2)c1	
8.68	6.13	N#Cc1cccc(CC(=O)Nc2nnc(N[C@@H]3CCN(c4cccnn4)C3)s2)c1	
8.72	6.14	O=C(Cc1cccc(C(=O)O)c1)Nc1nnc(N[C@@H]2CCN(c3cccnn3)C2)s1	INH [4]: 1.48 nM; INH (Homo sapiens): 157 nM
8.77	5.96	O=C(Cc1cccc(O)c1)Nc1nnc(N[C@@H]2CCN(c3cccnn3)C2)s1	
8.81	6.05	CCOP(=O)(OCC)c1cccc(CC(=O)Nc2nnc(N[C@@H]3CCN(c4cccnn4)C3)s2)c1	
9.10	7.89	COC(=O)c1cccc(CC(=O)Nc2nnc(N[C@@H]3CCN(c4cccnn4)C3)s2)c1	

Source: ChEMBL document CHEMBL5370626, “Targeting the Subpocket Enables the Discovery of Thiadiazole-Pyridazine Derivatives as Glutaminase C Inhibitors” (ACS Med Chem Lett, 2023)
